Here are results for two compounds from patent publication US12329823B2 (The Scripps Research Institute, priority 2021, dated 2025).

In assay [1] the target is cynomolgous monkey GIPR. Kind of assay: In vitro potency, cynomolgous monkey GIPR activation (receptor-mediated cAMP synthesis). It counts as cell-based. Conditions: Table 12; read-out: In Vitro Potency GIPR EC50, Cyno.
The target of assay [2] is T1, dog GIPR (Canis lupus familiaris, UniProt A0A8I3MPG1).
T1 sequence (A0A8I3MPG1 24-449): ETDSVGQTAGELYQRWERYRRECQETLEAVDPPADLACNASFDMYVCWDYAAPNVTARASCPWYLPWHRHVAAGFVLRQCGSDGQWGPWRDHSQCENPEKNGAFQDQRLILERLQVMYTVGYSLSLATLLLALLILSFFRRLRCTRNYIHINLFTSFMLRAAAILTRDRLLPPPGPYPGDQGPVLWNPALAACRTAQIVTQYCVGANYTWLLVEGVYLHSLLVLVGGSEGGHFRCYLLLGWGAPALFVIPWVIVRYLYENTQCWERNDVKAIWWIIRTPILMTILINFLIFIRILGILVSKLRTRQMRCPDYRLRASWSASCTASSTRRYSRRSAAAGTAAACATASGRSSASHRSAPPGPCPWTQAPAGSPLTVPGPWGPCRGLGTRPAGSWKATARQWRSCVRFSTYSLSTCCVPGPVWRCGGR
Kind of assay: In vitro potency, dog GIPR activation (receptor-mediated cAMP synthesis). It counts as cell-based. As for the experimental part:
GLP-1R-CRE or HEK293-GIPR-CRE cells were seeded in 384-well plates at a density of 5000 cells per well and cultured for 18 h in DMEM with 10% FBS at 37° C. and 5% CO2. Cells were treated with peptides in a dose dependent manner for 24 h, and receptor activation was reported by luminescence intensities, using One-Glo (Promega, WI) luciferase reagent following manufacturer's instruction. The EC50 of each peptide was determined using GraphPad Prism 6 software (GraphPad, San Diego, CA). Results are depicted in FIGS. 6A-6B, FIGS. 7A-7B, FIGS. 8A-8B, FIGS. 9A-9B, and Tables 7-12. Measurements of peptide conjugate potency were expressed as half maximal effective concentration (EC50) values.

Assay [3] can be described thus: In vivo oral glucose tolerance test (OGTT) 12 h after a single S.C. dose. Also on record: species or system mouse. Conditions: 10 nmol/kg S.C.; 12 h before glucose. How it is done:
Mice were fasted overnight prior to the oral glucose tolerance test (OGTT), and then dosed with peptide. After 12 h, 1 g of glucose solution per kg body weight was administered orally, and mouse tail blood glucose levels were measured before (0 min) and after glucose challenge for 90 minutes (with measurements at 15, 30, 60 and 90 minutes) (FIG. 16). The data were compared using the unpaired Student's t test. Where appropriate, data were compared using repeated measures or one-way analysis of variance, followed by the Student-Newman-Keuls post hoc test. Calculations for […] (mg/dL*min) were also analyzed and graphed in FIG. 16. […]. […].

Assay [4] has as its target T2, human GIPR (Homo sapiens, UniProt P48546).
T2 construct: expressed in transfected cells; host or cells: HEK293 (CRE-HEK293, HEK293-GIPR-CRE)
T2 sequence (P48546 22-466): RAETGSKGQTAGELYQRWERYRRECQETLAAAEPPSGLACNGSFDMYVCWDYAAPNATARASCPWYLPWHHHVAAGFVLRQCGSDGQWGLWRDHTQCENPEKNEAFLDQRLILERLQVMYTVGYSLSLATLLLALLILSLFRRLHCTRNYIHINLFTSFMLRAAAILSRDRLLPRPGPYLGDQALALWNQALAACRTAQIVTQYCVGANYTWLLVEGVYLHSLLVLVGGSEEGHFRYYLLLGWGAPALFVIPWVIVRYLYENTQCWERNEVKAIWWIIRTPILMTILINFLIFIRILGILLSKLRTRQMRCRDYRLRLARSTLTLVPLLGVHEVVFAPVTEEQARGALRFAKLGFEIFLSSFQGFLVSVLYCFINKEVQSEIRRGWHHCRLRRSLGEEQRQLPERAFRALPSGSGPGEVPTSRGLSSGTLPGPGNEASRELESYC
Particulars: literature, in words; cited from earlier work.

The target in assay [5] is human GLP-1R (Homo sapiens, UniProt P43220). Particulars: literature, in words; cited from earlier work.
Chain of human GLP-1R (P43220 24-463): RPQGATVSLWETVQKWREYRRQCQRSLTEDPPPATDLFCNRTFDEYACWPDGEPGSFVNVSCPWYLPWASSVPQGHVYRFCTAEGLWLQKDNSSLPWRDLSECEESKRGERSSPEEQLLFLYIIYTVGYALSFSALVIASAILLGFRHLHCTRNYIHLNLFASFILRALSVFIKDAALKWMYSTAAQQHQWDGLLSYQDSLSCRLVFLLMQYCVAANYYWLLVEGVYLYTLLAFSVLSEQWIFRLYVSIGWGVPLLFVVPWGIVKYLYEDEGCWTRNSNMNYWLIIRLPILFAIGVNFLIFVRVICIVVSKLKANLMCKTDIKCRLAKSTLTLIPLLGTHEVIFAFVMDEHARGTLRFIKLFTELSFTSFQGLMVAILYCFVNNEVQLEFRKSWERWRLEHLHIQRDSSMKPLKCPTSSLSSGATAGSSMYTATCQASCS

For the compound `CC[C@H](C)[C@H](NC(=O)[C@H](CO)NC(=O)[C@H](Cc1ccc(O)cc1)NC(=O)[C@H](CC(=O)O)NC(=O)[C@H](CO)NC(=O)[C@@H](NC(=O)[C@H](Cc1ccccc1)NC(=O)[C@@H](NC(=O)CNC(=O)[C@H](CCC(=O)O)NC(=O)[C@H](C)NC(=O)[C@@H](N)Cc1ccc(O)cc1)[C@@H](C)O)[C@@H](C)CC)C(=O)N[C@@H](C)C(=O)N[C@@H](CCSC)C(=O)N[C@@H](CC(=O)O)C(=O)N[C@@H](CCCCN)C(=O)N[C@H](C(=O)N[C@@H](Cc1c[nH]cn1)C(=O)N[C@@H](CCC(N)=O)C(=O)N[C@@H](CCC(N)=O)C(=O)N[C@@H](CC(=O)O)C(=O)N[C@@H](Cc1ccccc1)C(=O)N[C@H](C(=O)N[C@@H](CC(N)=O)C(=O)N[C@@H](Cc1c[nH]c2ccccc12)C(=O)N[C@@H](CC(C)C)C(=O)N[C@@H](CC(C)C)C(=O)N[C@@H](C)C(=O)N[C@@H](CCC(N)=O)C(=O)N[C@@H](CCCCN)C(=O)NCC(=O)N[C@@H](CCCCN)C(=O)N[C@@H](CCCCN)C(=O)N[C@@H](CC(N)=O)C(=O)N[C@@H](CC(=O)O)C(=O)N[C@@H](Cc1c[nH]c2ccccc12)C(=O)N[C@@H](CCCCN)C(=O)N[C@@H](Cc1c[nH]cn1)C(=O)N[C@@H](CC(N)=O)C(=O)N[C@H](C(=O)N[C@H](C(=O)N[C@@H](CCC(N)=O)C(=O)O)[C@@H](C)O)[C@@H](C)CC)C(C)C)[C@@H](C)CC` [hGIP, reference compound], the EC50 came out at 0.69 nM in assay [1] and 0.7 nM in assay [2].

Consider Tirzepatide, for which, in assay [1], the EC50 was 0.08 nM. Also, the “effects on glucose tolerance” value in assay [3] is “indistinguishable effects on glucose tolerance”. Further, the “binding affinity to human GIPR versus hGIP” value in assay [4] was “comparable affinity than that of hGIP”. The “GLP-1 receptor binding versus native hGLP-1” value in assay [5] was “approximately five times lower GLP-1 receptor binding than native hGLP-1”.
